Test results: patent US10375956B2, “Herbicidally active 2-(substituted-phenyl)-cyclopentane-1,3-dione compounds and derivatives thereof” (Syngenta Limited, priority 2013, dated 2019)

How the values were obtained:
Type in all cases: in vivo
[1] = tested on: Beta vulgaris (BEAVA, sugarbeet); test: Test 2 glasshouse assay (IF50 formulation, X-77), post-emergence herbicidal activity; conditions: 360 h, 15 DAA, visual score, read-out: Post-emergence herbicidal activity (percentage phytotoxicity) BEAVA; for plant injury at 30 g/ha: application rate 30 g/ha; for plant injury at 125 g/ha: application rate 125 g/ha
Protocol: (§1) Seeds of a variety of monocotyledonous and dicotyledonous test plants are sown in standard soil in pots. The plants are cultivated for one day (for pre-emergence) or for about 12 days (for post-emergence) under controlled conditions in a glasshouse (warm climate species at 24/18° C., cool climate species at 20/16° C., both at day/night; 16 hours light; 65% humidity).
(§2) An “instant formulation”, known as the “IF50”, containing 50 g/liter (i.e. 5% w/v) of the “technical” (i.e. unformulated) active ingredient is prepared by dissolving the active ingredient in a mixture of organic solvents and emulsifier, details of which are provided in the Table below. This IF50 is then mixed with a small, variable amount of acetone to aid dissolution, before addition of a 0.2% v/v aqueous solution of the adjuvant X-77 (which is a mixture of alkyl aryl polyoxyethylene glycols and free fatty acids in isopropanol, CAS Registry number 11097-66-8), as the aqueous diluent, to form an aqueous spray solution which contains a predetermined concentration of the active ingredient (which varies depending on the application rate of the active ingredient to the plants) and 0.2% v/v of the adjuvant X-77. This aqueous spray solution is then sprayed onto the plants, after one day's cultivation (for pre-emergence), or after about 12 days' cultivation (range=10-13 days) (for post-emergence).
(§3) The test plants are then grown on, in a glasshouse (greenhouse) under controlled conditions (warm climate species at 24/18° C., cool climate species at 20/16° C., both at day/night; 16 hours light; 65% humidity) and are watered twice daily. 15 days after application of the test herbicide (15DAA) (for post-emergence), and 20 days after application of the test herbicide (20DAA) (for pre-emergence), the test plants are evaluated visually, and an assessed percentage phytotoxicity score is given for each herbicidal application on each plant species (with 100%=total damage to plant; 0%=no damage to plant).
(§4) Cool climate crop plants: Triticum aestivum (TRZAW, winter wheat), Brassica napus (BRSNN, rape, also called oilseed rape or rapeseed), Beta vulgaris (BEAVA, sugarbeet). Warm climate crop plants: Glycine max (GLXMA, soybean).

[2] = tested on: Brassica napus (BRSNN, rape); test: as above; conditions: 360 h, 15 DAA, visual score, read-out: Post-emergence herbicidal activity (percentage phytotoxicity) BRSNN; for plant injury at 30 g/ha: application rate 30 g/ha; for plant injury at 125 g/ha: application rate 125 g/ha
Protocol: as §1, §2, §3, §4

[3] = tested on: Triticum aestivum (TRZAW, winter wheat); test: as above; conditions: 360 h, 15 DAA, read-out: Post-emergence herbicidal activity (percentage phytotoxicity) TRZAW; for plant injury at 30 g/ha: application rate 30 g/ha; for plant injury at 30 g/ha / plant injury at 125 g/ha: visual score; for plant injury at 125 g/ha: application rate 125 g/ha
Protocol: as §1, §2, §3, §4

[4] = tested on: Glycine max (GLXMA, soybean); test: as above; conditions: 360 h, 15 DAA, visual score, read-out: Post-emergence herbicidal activity (percentage phytotoxicity) GLXMA; for plant injury at 30 g/ha: application rate 30 g/ha; for plant injury at 125 g/ha: application rate 125 g/ha
Protocol: as §1, §2, §3, §4

[5] = tested on: Alopecurus myosuroides (ALOMY); test: as above; conditions: 360 h, 15 DAA, visual score, read-out: Post-emergence herbicidal activity (percentage phytotoxicity) ALOMY; for pest or weed control at 30 g/ha: application rate 30 g/ha; for pest or weed control at 125 g/ha: application rate 125 g/ha
Protocol: as §1, §2, §3
(§5) Cool climate (“cool season”) grassy monocotyledonous weeds: Alopecurus myosuroides (ALOMY), Avena fatua (AVEFA), Lolium perenne (LOLPE).

Avena fatua (AVEFA) = test: as above; conditions: 360 h, 15 DAA, visual score, read-out: Post-emergence herbicidal activity (percentage phytotoxicity) AVEFA; for pest or weed control at 30 g/ha: application rate 30 g/ha; for pest or weed control at 125 g/ha: application rate 125 g/ha
Protocol: as §1, §2, §3, §5

Lolium perenne (LOLPE) = test: as above; conditions: 360 h, 15 DAA, visual score, read-out: Post-emergence herbicidal activity (percentage phytotoxicity) LOLPE; for pest or weed control at 30 g/ha: application rate 30 g/ha; for pest or weed control at 125 g/ha: application rate 125 g/ha
Protocol: as §1, §2, §3, §5

[6] = tested on: Panicum miliaceum (PANMI); test: as above; conditions: 360 h, 15 DAA, visual score, read-out: Post-emergence herbicidal activity (percentage phytotoxicity) PANMI; for pest or weed control at 30 g/ha: application rate 30 g/ha; for pest or weed control at 125 g/ha: application rate 125 g/ha
How it was run: (§6)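 Glasshouse test: pots sown, grown one day (pre-emergence) or about 12 days (post-emergence) at 24/18 °C day/night for warm species, 16 h light, 65% humidity, then sprayed with IF50 in 0.2% v/v X-77. Visual % phytotoxicity scored 20 days (pre) or 15 days (post) after application.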

[7] = tested on: Echinochloa crus-galli (ECHCG); test: as above; conditions: 360 h, 15 DAA, visual score, read-out: Post-emergence herbicidal activity (percentage phytotoxicity) ECHCG; for pest or weed control at 30 g/ha: application rate 30 g/ha; for pest or weed control at 125 g/ha: application rate 125 g/ha
How it was run: as §6

Setaria faberi (SETFA) = test: Test 1 glasshouse assay, post-emergence herbicidal activity; conditions: 312 h, post-emergence (Example 1B Table 1), after 13 days, read-out: Percentage phytotoxicity SETFA
Protocol: (§7) Seeds of a variety of test species are sown in standard soil in pots. After cultivation for one day (pre-emergence) or after 8 days cultivation (post-emergence) under controlled conditions in a glasshouse (at 24/16° C., day/night; 14 hours light; 65% humidity), the plants are sprayed with an aqueous spray solution derived from the formulation of the “technical” (i.e. unformulated) active ingredient in acetone/water (50:50) solution containing 0.5% Tween 20 (polyoxyethylene sorbitan monolaurate, CAS Registry Number 9005-64-5). The test plants are then grown on under controlled conditions in a glasshouse (at 24/16° C., day/night; 14 hours light; 65% humidity) and watered twice daily. After 13 days for pre- or post-emergence, the test is evaluated visually, and an assessed percentage phytotoxicity score is given for each herbicidal application on each plant species (where 100%=total damage to plant; 0%=no damage to plant).
(§8) Test plants include the following: Abutilon theophrasti (ABUTH) and Amaranthus retroflexus (AMARE); these are all dicotyledonous (broadleaved) weeds. Setaria faberi (SETFA), Alopecurus myosuroides (ALOMY), and Echinochloa crus-galli (ECHCG); these are all grassy monocotyledonous weeds. Also: Zea mays (ZEAMX, corn/maize), which can be a grassy weed (“volunteer” corn) in some circumstances.

[8] = tested on: Amaranthus retroflexus (AMARE); test: as above; conditions: 312 h, post-emergence (Example 1B Table 1), after 13 days, read-out: Percentage phytotoxicity AMARE
Protocol: as §7, §8

[9] = tested on: Zea mays (ZEAMX, corn/maize); test: as above; conditions: 312 h, post-emergence (Example 1B Table 1), after 13 days, read-out: Percentage phytotoxicity ZEAMX
Protocol: as §7, §8

C#CCC1CC(=O)C(c2c(C)cc(-c3ccc(F)cc3)cc2C)C1=O (stereo not shown) [Compound A1, 2-[4-(4-fluorophenyl)-2,6-dimethyl-phenyl]-4-prop-2-ynylcyclopentane-1,3-dione]
plant injury at 30 g/ha [1]: 70%
plant injury at 125 g/ha [1]: 70%
plant injury at 30 g/ha [2]: 70%
plant injury at 125 g/ha [2]: 70%
plant injury at 30 g/ha [3]: 80%
plant injury at 125 g/ha [3]: 80%
plant injury at 30 g/ha [4]: 0%
plant injury at 125 g/ha [4]: 0%
pest or weed control at 30 g/ha [5]: 60%
pest or weed control at 125 g/ha [5]: 80%
pest or weed control at 30 g/ha (Avena fatua (AVEFA)): 70%
pest or weed control at 125 g/ha (Avena fatua (AVEFA)): 100%
pest or weed control at 30 g/ha (Lolium perenne (LOLPE)): 70%
pest or weed control at 125 g/ha (Lolium perenne (LOLPE)): 80%
pest or weed control at 30 g/ha [6]: 80%
pest or weed control at 125 g/ha [6]: 100%
pest or weed control at 30 g/ha [7]: 100%
pest or weed control at 125 g/ha [7]: 100%
pest or weed control at 62.5 g/ha (Setaria faberi (SETFA); 62.5 g/ha): 90%
pest or weed control at 250 g/ha (Setaria faberi (SETFA)): 100%
pest or weed control at 62.5 g/ha ([8]; 62.5 g/ha): 30%
pest or weed control at 250 g/ha [8]: 70%

C#CCC1CC(=O)C(c2c(F)cc(-c3ccc(F)cc3)cc2OC)C1=O (stereo not shown) [Compound A20, 2-[2-fluoro-4-(4-fluorophenyl)-6-methoxyphenyl]-4-prop-2-ynylcyclopentane-1,3-dione]
pest or weed control at 30 g/ha (Setaria faberi (SETFA)): 80%
pest or weed control at 250 g/ha (Setaria faberi (SETFA)): 100%
pest or weed control at 30 g/ha [8]: 0%
pest or weed control at 250 g/ha [8]: 70%
pest or weed control at 30 g/ha [9]: 90%
pest or weed control at 250 g/ha [9]: 100%

C#CCC1CC(=O)C(c2c(F)cc(-c3ccc(F)cc3F)cc2OC)C1=O (stereo not shown) [Compound A21]
pest or weed control at 30 g/ha (Setaria faberi (SETFA)): 80%
pest or weed control at 250 g/ha (Setaria faberi (SETFA)): 100%
pest or weed control at 30 g/ha [8]: 10%
pest or weed control at 250 g/ha [8]: 30%
pest or weed control at 30 g/ha [9]: 100%
pest or weed control at 250 g/ha [9]: 100%

C#CCC1CC(=O)C(c2c(C)cc(C)cc2C)C1=O (stereo not shown) [Compound A23]
plant injury at 125 g/ha [1]: 30%
plant injury at 125 g/ha [2]: 70%
plant injury at 125 g/ha [3]: 20%
plant injury at 125 g/ha [4]: 0%
pest or weed control at 125 g/ha [5]: 90%
pest or weed control at 125 g/ha (Avena fatua (AVEFA)): 80%
pest or weed control at 125 g/ha (Lolium perenne (LOLPE)): 90%
pest or weed control at 125 g/ha [6]: 100%
pest or weed control at 125 g/ha [7]: 100%

C#CCC1CC(=O)C(c2c(CC)cc(C)cc2CC)C1=O (stereo not shown) [Compound A25, 2-(2,6-diethyl-4-methyl-phenyl)-4-(prop-2-ynyl)-cyclopentane-1,3-dione]
plant injury at 30 g/ha [1]: 0%
plant injury at 125 g/ha [1]: 0%
plant injury at 30 g/ha [2]: 0%
plant injury at 125 g/ha [2]: 20%
plant injury at 30 g/ha [3]: 10%
plant injury at 125 g/ha [3]: 60%
plant injury at 30 g/ha [4]: 0%
plant injury at 125 g/ha [4]: 0%
pest or weed control at 30 g/ha [5]: 50%
pest or weed control at 125 g/ha [5]: 80%
pest or weed control at 30 g/ha (Avena fatua (AVEFA)): 80%
pest or weed control at 125 g/ha (Avena fatua (AVEFA)): 100%
pest or weed control at 30 g/ha (Lolium perenne (LOLPE)): 90%
pest or weed control at 125 g/ha (Lolium perenne (LOLPE)): 100%
pest or weed control at 30 g/ha [6]: 100%
pest or weed control at 125 g/ha [6]: 100%
pest or weed control at 30 g/ha [7]: 100%
pest or weed control at 125 g/ha [7]: 100%

C#CCC1C(=O)C(c2c(C)cc(C)cc2C)C(=O)C1CC#C (stereo not shown) [Compound A42]
plant injury at 125 g/ha [1]: 0%
plant injury at 500 g/ha ([1]; application rate 500 g/ha): 30%
plant injury at 125 g/ha [2]: 20%
plant injury at 500 g/ha ([2]; application rate 500 g/ha): 80%
plant injury at 125 g/ha [3]: 0%
plant injury at 500 g/ha ([3]; application rate 500 g/ha, visual score 100%=total damage, 0%=no damage): 10%
plant injury at 125 g/ha [4]: 10%
plant injury at 500 g/ha ([4]; application rate 500 g/ha): 10%
pest or weed control at 125 g/ha [5]: 50%
pest or weed control at 500 g/ha ([5]; application rate 500 g/ha): 70%
pest or weed control at 125 g/ha (Avena fatua (AVEFA)): 0%
pest or weed control at 500 g/ha (Avena fatua (AVEFA); application rate 500 g/ha): 50%
pest or weed control at 125 g/ha (Lolium perenne (LOLPE)): 80%
pest or weed control at 500 g/ha (Lolium perenne (LOLPE); application rate 500 g/ha): 100%
pest or weed control at 125 g/ha [6]: 100%
pest or weed control at 500 g/ha ([6]; application rate 500 g/ha): 100%
pest or weed control at 125 g/ha [7]: 100%
pest or weed control at 500 g/ha ([7]; application rate 500 g/ha): 100%
